ChEMBL document CHEMBL3352646, “New imidazo[1,2-b]pyrazoles as anticancer agents: synthesis, biological evaluation and structure activity relationship analysis” (Eur J Med Chem, 2014)

Legend:
SK-MEL-28 = test: Anticancer activity human SK-MEL-28 cells assessed as growth inhibition by MTT colorimetric assay; format: functional, cell-based
[1] = Anticancer activity human Hs683 cells assessed as growth inhibition by MTT colorimetric assay; format: functional, cell-based; conditions: Hs 683
[2] = Anticancer activity mouse B16F10 cells assessed as growth inhibition by MTT colorimetric assay; format: functional, cell-based; conditions: B16-F10
[3] = Anticancer activity human U373 cells assessed as growth inhibition by MTT colorimetric assay; format: functional, cell-based, U-373MG ATCC; conditions: U373 MG
MCF7 = test: Anticancer activity human MCF7 cells assessed as growth inhibition by MTT colorimetric assay; format: functional, cell-based
A549 = test: Anticancer activity human A549 cells assessed as growth inhibition by MTT colorimetric assay; format: functional, cell-based
NHDF = test: Cytotoxicity against human NHDF cells by MTT colorimetric assay; format: cell-based
[4] = Cytotoxicity against human NHLF cells by MTT colorimetric assay; format: cell-based

SMILES	IC50 (SK-MEL-28) [µM]	IC50 [1] [µM]	IC50 [2] [µM]	IC50 [3] [µM]	IC50 (MCF7) [µM]	IC50 (A549) [µM]	Activity (NHDF)	Activity [4]
COc1ccc(-c2cn3nc(-c4ccccc4)c(C(=O)N4CCOCC4)c3n2C)cc1	> 100	> 100	76	> 100	> 100	> 100	–	–
COc1ccc(-c2cn3nc(-c4ccccc4)c(C(=O)N4CCN(C)CC4)c3n2C)cc1	> 100	> 100	74	> 100	88	> 100	–	–
COc1ccc(-c2c(-c3ccc(C)cc3)n3nc(-c4ccccc4)c(CN4CCCCC4)c3n2C)cc1	39	37	25	33	72	51	–	–
COc1ccc(-c2c(-c3ccncc3)n3nc(-c4ccccc4)c(CN4CCOCC4)c3n2C)cc1	5	3	2	12	16	5	–	–
COc1ccc(-c2c(-c3ccc(OC)cc3)n3nc(-c4ccccc4)cc3n2C)cc1	> 100	> 100	–	96	> 100	> 100	–	–
COc1ccc(-c2c(-c3ccccc3C#N)n3nc(-c4ccccc4)cc3n2C)cc1	16	26	–	13	35	22	–	–
COc1ccc(-c2c(-c3ccc(C)cc3)n3nc(-c4ccccc4)c(CN4CCN(C)CC4)c3n2C)cc1	21	18	12	19	18	20	–	–
COc1ccc(-c2c(-c3ccc(C(F)(F)F)cc3)n(C)c3c(CN4CCOCC4)c(-c4ccccc4)nn23)cc1	28	62	38	20	59	37	–	–
COc1ccc(-c2cn3nc(-c4ccccc4)c(CN4CCOCC4)c3n2C)cc1	14	5	5	4	5	9	–	–
COc1ccc(-c2c(-c3ccc(C)cc3)n3nc(-c4ccccc4)c(CN4CCOCC4)c3n2C)cc1	> 100	48	46	30	45	37	–	–
COc1ccc(-c2c(-c3ccc(C(F)(F)F)cc3)n3nc(-c4ccccc4)c(CN4CCN(C)CC4)c3n2C)cc1	19	21	23	24	20	20	–	–
COc1ccc(-c2c(-c3ccc(C(F)(F)F)cc3)n3nc(-c4ccccc4)cc3n2C)cc1	> 100	> 100	–	> 100	> 100	> 100	–	–
COc1ccc(-c2c(-c3ccc(C(F)(F)F)cc3)n3nc(-c4ccccc4)c(CN4CCOCC4)c3n2C)cc1	2.3	0.9	2.1	0.8	1.9	1.3	Non-toxic	Non-toxic
COc1ccc(-c2c(-c3cccc(C)c3)n3nc(-c4ccccc4)cc3n2C)cc1	29	59	–	46	75	31	–	–
